Like-named read-outs stand apart in the source and are kept apart here.
What was measured:
[1] = target: NMDA receptors; settings: concentration suppressing MK-801 binding by 50%, cited from earlier work
[2] = tested on: NMDA receptors; settings: concentration giving complete protection of neurons against 200 μM NMA, cell culture; cited from earlier work
[3] = tested on: rats with sciatic nerve ligation; experiment: Sciatic nerve ligation model of neuropathic pain, paw lifting latency to thermal stimulus; assay type: in vivo, rat
Source text: In all experiments, one hind limb of the rat has undergone a surgical operation in which a loop (“ligature”) of suture material was placed around the sciatic nerve and gently tightened. Over the course of several days, this caused chronic irritation to the nerve, driving it into a “hyper-sensitized” condition of the type which occurs in damaged neuronal circuits that cause neuropathic pain in humans.
After the nerve ligation operation, a waiting period of 8 days elapsed, to allow the ligated limb to reach a peak of hypersensitized chronic irritation of the ligated sciatic nerve. This sciatic nerve model was first described by Bennet and Xie 1988, and is widely regarded as a useful animal model for studying neuropathic pain.
To test the degree of sensitivity in the ligated limb vs. the unoperated limb, a beam of light (thermal stimulus) is applied to the soles (i.e., the undersurface area which is not covered by fur) of the hind paws, by shining a focused beam of light onto the sole, through the glass floor of a testing chamber. This beam was sufficiently hot to generate some discomfort, without posing any risk of burning the paw. The number of seconds that elapsed after commencement of the thermal stimulus, until the rat lifted up the paw, were detected electronically and recorded automatically.
Each limb is tested initially for thermal pain sensitivity, before the ligation operation is performed (pre-surgery), to ensure that both limbs had the same degree of pain sensitivity. After 8 days following surgery, each limb was tested again, before any treatment was given (pre-treatment), to ensure that the nerve ligature successfully provoked a hyper-irritable condition in the ligated limb. After drug treatment (at time=0, on the graphs), each limb was tested for thermal pain sensitivity at hourly intervals, for 4 hours.
The first set of in vivo tests involved sciatic nerve ligation in rats, using procedures described in Bennett and Xie, Pain 33: 87-107 (1988). This test involves surgically placing and tightening a loop of suture material around the sciatic nerve in one hind leg of a rat; the other hind leg serves as a control. Within about a week, the ligated sciatic nerve becomes irritated and reaches a hyper-responsive “kindled” state, where it will respond rapidly to even a mild stimulus that is not painful to an untampered leg. As such, it offers a model of what happens in pain pathways that have become pathologically hypersensitized in a human suffering from neuropathic pain.
In these tests, on the 8th day after surgery, the rat is placed in a testing device which electronically measures how quickly or slowly it acts, in lifting up a paw in response to a standardized mild warming (thermal) stimulus. The warming stimulus is generated by a light beam which shines onto the bottom surface of the paw, through the glass floor of the testing enclosure. The device is electronically controlled and automated, and measurements are made of the number of seconds that elapse after the light beam begins to shine on the bottom of the paw, until the rat lifts its paw.
To establish baseline values for pain sensitivity of each limb in each group of animals, each limb was tested initially for thermal pain sensitivity before the ligation operation was performed (pre-surgery). After 8 days, each limb was again tested before any drug treatment was administered (shown by the “pre-treatment” legend in all graphs). After drug administration, each limb was tested for thermal pain sensitivity at hourly intervals, for 4 hours.
Saline controls and all drugs were administered by intraperitoneal (IP) injection, i.e., hypodermic injection into the abdominal region. This is a convenient and reliable method of drug administration, for tests involving rats.
The test results are shown graphically in the Figures; each circle indicates the mean value, and the vertical bars show the standard error of the mean (SEM). […]

[4] = tested on: rats; settings: from 0.5 hr after treatment for 1 hr
Method: To address these issues, rats with sciatic nerve ligations, and rats with only sham sciatic nerve ligations, were treated with various doses of ethopropazine, clonidine, or the two agents together. They were then evaluated, using the following battery of sensorimotor and activity tests:
(5) One Hour Activity Level.
Locomotor activity was evaluated beginning at 0.5 hr following drug treatment, and lasting for 1 hr. In this test, the rat was placed in a cage equipped with three pairs of photoelectric cells, placed at regular intervals across the width of the cage, so that the animal's activity was monitored by automatically recording the number of “beam breaks” registered as the animal moved about the cage.

[5] = tested on: rats; experiment: Sensorimotor battery (plank, walking initiation, platform, inclined screen, activity); assay type: in vivo, rat; settings: treatment regimens that proved effective for relieving neuropathic pain; 1 hour post-treatment
Method: Testing was done at 1 hour post-treatment, which corresponded with the time of peak effect of drugs on paw withdrawal latency. Briefly, the sensorimotor battery consisted of five tests (Wozniak et al 1990) that are known to be able to detect significant muscle weakness, incoordination, somnolence, or other behavioral impairments.
For all of the tests in this sensorimotor battery, all treatment groups first received a habituation trial, to allow each rat to acclimate to the test situation. In all tests, protective padding was placed under any elevated apparatuses, to prevent pain or injury from falling. The tests performed were as follows:
A rat was timed for how long it could remain on a wooden plank that is 3 cm wide, elevated 61 cm above the floor.
Each rat was placed in the middle of a square outlined by white cloth tape (50×50 cm) on a smooth black surface of a large table top, and was timed for how long was required for the rat to leave the square (place all four paws outside the square).
Each rat was timed for how long it could remain perched on an elevated (61 cm above the floor) platform of small dimensions (7.6×15.2 cm).
Each rat was placed in the middle of an elevated (61 cm above the floor) wire mesh grid (8 squares per 10 cm) which was inclined at 60 degrees with the floor. […]

[6] = tested on: NMDA receptors; experiment: Protection of neurons in cell culture against 200 μM NMA (Olney et al 1987); assay type: cell-based; settings: ratio of protective concentrations
Method: In Table 1, the “protective concentration” for each compound was the micromolar concentration of that compound which provided complete protection for neurons, in cell culture tests, against a 200 μM concentration of NMA (i.e., a racemic mixture of the D and L stereoisomers of N-methyl-aspartate; the D isomer, which makes up 50% of the racemic mixture, is highly toxic to neurons, while the L isomer is somewhat less toxic).

[7] = clonidine alone, IP, 0.075 mg/kg

CNCCC=C1c2ccccc2CCc2ccccc21 [Nortriptyline]
IC50 [1]: 21 ± 0.67 µM

OC(CCN1CCCCC1)(c1ccccc1)C1CCCCC1 (centres unmarked) [Trihexyphenidyl]
Protective concentration [2]: 125 µM

CCN(CC)C(C)CN1c2ccccc2Sc2ccccc21 (centres unmarked) [Ethopropazine]
paw lifting latency curves of ligated and control limbs ([3]; ethopropazine alone, FIGS. 2B and 2C (20 and 30 mg/kg), 2 and 3 hour testing times): both curves rose, substantially | pain sensitivity (paw lifting latency) ([3]; ethopropazine alone, IP, 50 mg/kg, FIG. 2D): significantly changed the level of pain sensitivity in the ligated limb | pain sensitivity (paw lifting latency) ([3]; ethopropazine alone, IP, 10 to 30 mg/kg, FIG. 2): did not significantly change the pain sensitivity in either limb | activity level ([4]; ethopropazine alone, 50 mg/kg): significantly reduced activity level | performance on sensorimotor tests [5]: None of the ethopropazine or combined ethopropazine-plus-clonidine treatment regimens that proved effective for relieving neuropathic pain was associated with any impaired performance | Protective concentration [2]: 25 µM

OC(CCN1CCCC1)(c1ccccc1)C1CCCCC1 (centres unmarked) [Procyclidine]
Protective concentration [2]: 15 µM

CN1[C@@H]2C[C@@H](OC(=O)[C@H](CO)c3ccccc3)C[C@H]1[C@@H]1O[C@@H]12 [Scopolamine]
Protective concentration [2]: >3000 µM

Clc1cccc(Cl)c1N=C1NCCN1 [clonidine]
relief of neuropathic pain ([3]; clonidine alone, IP, 0.025 mg/kg and 0.05 mg/kg): no significant relief of neuropathic pain | relief of neuropathic pain [3, 7]: significant and relatively sustained neuropathic pain relief | sedation observed [3, 7]: significant sedation | activity level ([4]; clonidine alone, 0.050 mg/kg): reduce activity levels, but only slightly and to a barely significant degree | activity level ([4]; clonidine alone, 0.075 mg/kg): substantially reduced activity levels

c1ccc(C2(N3CCCCC3)CCCCC2)cc1 [phencyclidine]
potency relative to ethopropazine (times more potent) [6]: 50 times | potency relative to procyclidine (times more potent) [6]: 30 times | Protective concentration [2]: 0.5 µM

CNC1(c2ccccc2Cl)CCCCC1=O (centres unmarked) [Ketamine]
IC50 ([1]; comparator in text): 1.02 ± 0.33 µM | potency relative to ethopropazine (times more potent) [6]: 5 times | potency relative to procyclidine (times more potent) [6]: 3 times | Protective concentration [2]: 5 µM

CN(C)CCOC(c1ccccc1)c1ccccc1 [Diphenhydramine]
Protective concentration [2]: 250 µM

OC(CCN1CCCCC1)(c1ccccc1)C1CC2C=CC1C2 (centres unmarked) [Biperiden]
Protective concentration [2]: 200 µM

CN(C)CCCN1c2ccccc2Sc2ccc(Cl)cc21 [Chlorpromazine]
IC50 [1]: 45.9 ± 11.5 µM

CNCCCN1c2ccccc2CCc2ccccc21 [Desipramine]
IC50 [1]: 7.41 ± 1.32 µM

From US20020177592A1, “Combination of adrenergic agonist and tricyclo-alkylamine for relieving chronic pain without adverse side effects” (priority 1998, published 2002)
